From US8796302B2 (priority 2004, dated 2014)

Legend:
CD-1 mouse Kupffer cells = test: Superoxide and intracellular ROS in LPS-stimulated Kupffer cells; format: cell-based; details: LPS 10 ng/ml
Description: Kupffer cell samples were collected by anesthetizing the CD-1 mice with pentobarbital anesthesia [60 mg/kg intraperitoneally (i.p.)]. The abdomen of the animals was shaved and opened, the portal vein was cannulated and perfused with Ca^2+- and Mg^2+-free Hanks' balanced salt solution (HBSS) at 37° C. for 5 min at a flow rate of 13 ml/min. Subsequently, the liver was perfused with HBSS containing 0.05% collagenase IV (Sigma Chemical, St. Louis, Mo.) at 37° C. for 5 min. After the liver was digested, it was excised and cut into small pieces in collagenase buffer. The suspension was filtered through nylon gauze mesh, and the filtrate was centrifuged at 450×g for 10 min at 4° C. Cell pellets were resuspended in buffer, parenchymal cells were removed by centrifugation at 50×g for 3 min, and the nonparenchymal cell fraction was washed twice with buffer. Cells were centrifuged on a density cushion of 50% of Percoll (Pharmacia, Upsala, Sweden) at 1,000×g for 15 min, and the Kupffer cell fraction was collected and washed again with buffer. The viability of the cells was determined by tryptan blue exclusion at >90%. The cells were seeded onto 24-well culture plates and cultured in RPMI 1640 (GIBCO Laboratories Life Technologies, Grand Island, N.Y.) supplemented with 10% fetal bovine serum and antibiotics (100 U/ml penicillin G and 100 μg/ml streptomycin sulfate) at 37° C. with 5% CO2. Non-adherent cells were removed after 2 hours by replacing media, and cells were cultured for 24 hours before the experiments.
The production of superoxide and intracellular ROS by the Kupffer cells were measured as in Example 5.

COX2 = test: Western blot of COX2 in microglia enriched cultures; format: cell-based, rat; details: femto-molar DM, 30 min pretreatment, LPS
Description: (§1) Western blots were used to analyze possible effects of DM on iNOS and COX2 production in rat microglia enriched cultures. The cultures were prepared and treated with vehicle, OM DM, 10^−14DM, LPS alone, and LPS with different concentrations of DM. The production of iNOS (inducible nitric oxide synthenase) and COX2 (cycloxyase 2) in the culture extracts were detected by Western Blot assay. Data in FIG. 9B represent the mean±S.E.

TNFα = TNFα production in neuron-glia cultures of PHOX+/+ and PHOX−/− mice; format: cell-based, mouse; details: DM 10^−14 M
Description: Neurotoxicity was assessed by DA uptake as described in Example 1. TNFα production was measured by ELISA and iROS was determined by DCFDA as in Example 5. Results are expressed as a percentage of the control culture in FIG. 7A, pg/ml in FIG. 7B, and difference from control in FIG. 7C, respectively, and are the mean±S.E.M. of five individual experiments with triplicates in each experiment. *, P<0.05 compared with LPS culture.
The rat and mouse ventral mesencephalic neuron-glia cultures were prepared as in Example 1. […] DA neurotoxicity was measured by using the [^3H] DA uptake assay as in Example 1. The data are expressed as the percent of the control cultures and are the mean±SEM. The release of TNFα was measured with a commercially available enzyme-linked immunosorbent assay kit. *P<0.05, **P<0.01, compared to control. The amount of TNFα was measured as in Example 2.

PGE2 = PGE2 release (EIA) after LPS; format: cell-based, rat
[1] = tested on: GalN/LPS-induced liver gene expression; test: Liver gene expression (real-time RT-PCR) after GalN/LPS; format: in vivo, mouse
Excerpt: Total RNA was extracted from liver tissues (n=4 to 5) by Trizol reagent (Sigma, St. Louis, Mo.) and purified with an RNeasy column (Qiagen, Valencia, Calif.). Expression of the selected genes was quantified using real-time RT-PCR analysis that began by reverse transcribing the samples with MuLV reverse transcriptase and oligo-dT primers.
The SYBR green DNA PCR kit (Applied Biosystems, Foster City, Calif.) was used for real-time PCR analysis. The relative differences in expression between groups were expressed using cycle time (Ct) values and the relative differences between groups were expressed as relative increases setting control as 100%. Assuming that the Ct value is reflective of the initial starting copy and that there is 100% efficacy, a difference of one cycle is equivalent to a two-fold difference in starting copy.

iNOS = test: Western blot of iNOS in microglia enriched cultures; format: cell-based, rat; details: femto-molar DM, 30 min pretreatment, LPS
Description: as §1

[2] = tested on: neurons in neuron-enriched cultures; test: MAP-2 / TH immunostaining morphology of neuron-enriched cultures; format: cell-based, rat; details: 7 days exposure; media conditioned 48 hours; VPA 0.6 mM
Description: Neuron-enriched cultures were immunostained with MAP-2 for morphological examination. FIGS. 40A-40D show morphological features of neuron-enriched cultures were examined after incubation with vehicle (A), 0.6 mM VPA (B), ACM (C) or ACM-VPA (D) for 7 days and then immunocytostaining with MAP-2 antibody.
The immunostaining was carried out according to the following procedure. Formaldehyde (3.7%)-fixed cultures were treated with 1% hydrogen peroxide (10 min) followed by sequential incubation with blocking solution (30 min), primary antibody (overnight, 4° C.), biotinylated secondary antibody (2 hours), and ABC reagents (40 min) (Vector Laboratories, Burlingame, Calif.). The color development was achieved by the addition of 3,3′-diaminobenzidine. For morphological analysis, the images were recorded with an inverted microscope (Nikon, Tokyo, Japan) connected to a charge-coupled device camera (DAGE-MTI, Michigan City, Ind.) operated with the MetaMorph software (Universal Imaging Corporation, Downingtown, Pa.). For visual counting of TH-IR neurons, nine representative areas per well of the 24-well plate were counted under the microscope at 100× magnification.
To specifically visualize morphological changes in DA neurons, we immunostained neuron-enriched cultures with anti-TH antibody. […]

[3] = ratio to control, 12 hr, DM 12.5 mg/kg sc x2

With `COc1ccc2c(c1)[C@@]13CCCC[C@H]1[C@@H](C2)N(C)CC3` [DM, d-3-methoxy-N-methylmorphinan] the extracellular superoxide production (CD-1 mouse Kupffer cells; DM 5 μM) was “attenuated”, the “intracellular superoxide production (iROS)” value (CD-1 mouse Kupffer cells; DM 5 μM) was “attenuated” and the extracellular superoxide production (CD-1 mouse Kupffer cells; DM 10 μM) was “significantly blunted”. For the same molecule, the “intracellular superoxide production (iROS)” value (CD-1 mouse Kupffer cells; DM 10 μM) was “significantly blunted”, the “protein content of COX2” value (COX2) was “failing to affect the protein content” and the “LPS-induced TNFα production” value (TNFα; PHOX+/+ mice) was “significantly reduce TNFα production”. For the same molecule, the “LPS-induced TNFα production” value (TNFα; PHOX−/− mice) was “not seen”, the “LPS-induced increase in the release of PGE2” value (PGE2; DM 10^−5 M and 10^−14 M pretreatment) was “significantly decreased” and the “LPS-induced increase in the release of PGE2” value (PGE2; DM 10^−10 M pretreatment) was “no significant reduction”. For the same molecule, the “PGE2 production, post treatment” value (PGE2; femtomolar DM after removal of LPS (20 ng/ml, 12 h), 24 h) was “reduction of NO and PGE2 production”, the “MIP-2 expression, LPS + DM” value ([1]; 12 hr after GalN/LPS, DM 12.5 mg/kg sc x2, controls 1.0, LPS/GalN alone 153.3 ± 6.4) was 39.0 ± 2.1 fold and the “GADD153 expression, LPS + DM” value ([1]; 12 hr, DM 12.5 mg/kg sc x2, controls 1.0, LPS/GalN alone 7.4 ± 0.3) was 2.7 ± 1.3 fold. For the same molecule, the “ICAM-1 expression, LPS + DM” value ([1]; 12 hr, DM 12.5 mg/kg sc x2, controls 1.0, LPS/GalN alone 8.45 ± 1.3) was 5.05 ± 2.7 fold, the “mKC expression, LPS + DM” value ([1]; 12 hr, DM 12.5 mg/kg sc x2, controls 1.0, LPS/GalN alone 13.7 ± 2.9) was 5.8 ± 1.6 fold and the “GADD45 expression, LPS + DM” value ([1]; 12 hr, DM 12.5 mg/kg sc x2, controls 1.0, LPS/GalN alone 24.6 ± 12.4) was 5.3 ± 2.4 fold. The “IL-10 expression, LPS + DM” value ([1]; 12 hr, DM 12.5 mg/kg sc x2, controls 1.0, LPS/GalN alone 25.3 ± 2.9) was 15.0 ± 3.3 fold, the “c-jun/AP-1 expression, LPS + DM” value ([1]; 12 hr, DM 12.5 mg/kg sc x2, controls 1.0, LPS/GalN alone 28.0 ± 7.5) was 9.1 ± 0.8 fold and the “c-myc expression, LPS + DM” value ([1]; 12 hr, DM 12.5 mg/kg sc x2, controls 1.0, LPS/GalN alone 45.4 ± 3.6) was 18.4 ± 2.1 fold. The “Thrombospondin-1 expression, LPS + DM” value ([1]; 12 hr, DM 12.5 mg/kg sc x2, controls 1.0, LPS/GalN alone 94.2 ± 2.5) was 56.0 ± 1.57 fold, the “IL-6 expression, LPS + DM” value ([1]; 12 hr, DM 12.5 mg/kg sc x2, controls 1.0, LPS/GalN alone 153.4 ± 13.3) was 43.6 ± 6.3 fold and the “GADD45, LPS + DM/Cont” value [1, 3] was 5.3 fold. For the same molecule, the “GADD153, LPS + DM/Cont” value [1, 3] was 2.7 fold, the “ICAM-1, LPS + DM/Cont” value [1, 3] was 5.05 fold and the “IL-6, LPS + DM/Cont” value [1, 3] was 43.6 fold. For the same molecule, the “IL-10, LPS + DM/Cont” value [1, 3] was 15 fold, the “MIP-2, LPS + DM/Cont” value [1, 3] was 39.0 fold and the “Thrombospondin-1, LPS + DM/Cont” value [1, 3] was 56.0 fold. The “c-jun/AP-1, LPS + DM/Cont” value [1, 3] was 9.1 fold, the “c-myc, LPS + DM/Cont” value [1, 3] was 18.4 fold and the “mKC, LPS + DM/Cont” value [1, 3] was 5.8 fold. The “protein content of iNOS” value (iNOS) was “failing to affect the protein content”.

For `CCCC(CCC)C(=O)O` [VPA, Valproic acid], the “neurite outgrowth (MAP-2 immunostaining)” value [2] was “Much smaller effects”.
